Format in all cases: cell-based
The subject of assay [1] is Staphylococcus epidermidis 831 (MRSE). Put plainly: MIC by broth microdilution, SE 831. The note with it: read-out: MIC SE 831. As to the method: (§1) Antibacterial activity in vitro is investigated by broth microdilution method in Meuller-Hinton broth as recommended by NCCLS. All strains tested are clinical isolates either sensitive or resistant to natural glycopeptides. MIC values were determined using the CLSI-recommended broth microdilution procedure (Clinical and Laboratory Standards Institute, Methods for Dilution Antimicrobial Susceptibility Tests for Bacteria That Grow Aerobically; Approved Standard-Seventh Edition.). Automated liquid handlers (Multidrop 384, Labsystems, Helsinki, Finland; Biomek 2000 and Multimek 96, Beckman Coulter, Fullerton Calif.) were used to conduct serial dilutions and liquid transfers. The MIC value for vancomycin is given for comparison. The abbreviations for organisms tested are as follow: SA 100—Staphylococcus aureus 100 (ATCC 29213); SA 757—Staphylococcus aureus 757 (MRSA); SA 2012—Staphylococcus aureus 2012 (VISA); SE 835—Staphylococcus epidermidis 835; SE 831—Staphylococcus epidermidis 831 (MRSE); EFc 101—Enterococcus faecalis 101 (ATCC 29212); EFc 848—Enterococcus faecalis 848 (VRE, Van A); EFcm 800—Enterococcus faecium 800; EFcm 752—Enterococcus faecium 752 (VRE, Van A); SPNE 1195—Streptococcus pneumoniae 1195 (ATCC 49619); SPY 712—Streptococcus pyogenes 712.

The test system of assay [2] is Staphylococcus aureus 100 (ATCC 29213). As to the kind of experiment: MIC by broth microdilution, SA 100. As to the method: as §1
Assay [3] has as its system Staphylococcus aureus 2012 (VISA). As to the kind of experiment: MIC by broth microdilution, SA 2012. Particulars: class symbols. As to the method:
as §1

Assay [4] deals with Enterococcus faecalis 848 (VRE, Van A). As to the kind of experiment: MIC by broth microdilution, EFc 848. Particulars: class symbols. As to the method: as §1
Another assay relates to Enterococcus faecium 800. Put plainly: MIC by broth microdilution, EFcm 800. As to the method:
as §1

For assay [5], the system named is Enterococcus faecium 752 (VRE, Van A). As to the kind of experiment: MIC by broth microdilution, EFcm 752. The note with it: class symbols. As to the method:
as §1

Assay [6] has as its system Staphylococcus aureus 757 (MRSA). Put plainly: MIC by broth microdilution, SA 757. Particulars: read-out: MIC SA 757. As to the method: as §1
Assay [7] relates to Streptococcus pneumoniae 1195 (ATCC 49619). As to the kind of experiment: MIC by broth microdilution, SPNE 1195. As to the method:
as §1

Assay [8] relates to Enterococcus faecalis 101 (ATCC 29212). As to the kind of experiment: MIC by broth microdilution, EFc 101. Particulars: class symbols. As to the method:
as §1

For assay [9], the system named is Staphylococcus epidermidis 835. As to the kind of experiment: MIC by broth microdilution, SE 835. As for the experimental part: as §1
In assay [10] the test system is Streptococcus pyogenes 712. Put plainly: MIC by broth microdilution, SPY 712. As for the experimental part: as §1
[11] abbreviates: Staphylococcus epidermidis, MRSE.
[12] abbreviates: Staphylococcus aureus, ATCC29213, read-out: MIC SA 100.
[13] abbreviates: Staphylococcus aureus, VISA, read-out: MIC SA 2012, Staphylococcus aureus 2012 (VISA).
Setting [14] is: Enterococcus faecalis, VRE, read-out: MIC E FC 848, Enterococcus faecalis 848 (VRE, Van A).
Setting [15] is: Enterococcus faecium, 800, read-out: MIC E FCM 800.
[16] abbreviates: Enterococcus faecium, VRE, read-out: MIC E FCM 752, Enterococcus faecium 752 (VRE, Van A).
[17] abbreviates: Streptococcus pneumoniae, ATCC49619, read-out: MIC S PNE 1195.
Where [18] appears, read: Enterococcus faecalis, ATCC29212, read-out: MIC E FC 101, Enterococcus faecalis 101 (ATCC 29212).
[19] abbreviates: Staphylococcus epidermidis, 835, read-out: MIC SE 835.
Setting [20] is: Streptococcus pyogenes, 712, read-out: MIC S PYO 712.
Setting [21] is: Staphylococcus epidermidis 831 (MRSE), class symbols.
Where [22] appears, read: ATCC29213, Staphylococcus aureus 100 (ATCC 29213), class symbols, read-out: MIC SA 100.
Setting [23] is: Staphylococcus aureus 2012 (VISA), read-out: MIC SA 2012.
Where [24] appears, read: Enterococcus faecalis 848 (VRE, Van A), read-out: MIC E FC 848.
[25] abbreviates: Enterococcus faecium 800, class symbols, read-out: MIC E FCM 800.
The mark [26] stands for this setting: Enterococcus faecium 752 (VRE, Van A), read-out: MIC E FCM 752.
[27] abbreviates: Staphylococcus aureus 757 (MRSA), class symbols.
Where [28] appears, read: ATCC49619, Streptococcus pneumoniae 1195 (ATCC 49619), class symbols, read-out: MIC S PNE 1195.
The mark [29] stands for this setting: ATCC29212, Enterococcus faecalis 101 (ATCC 29212), read-out: MIC E FC 101.
Setting [30] is: Staphylococcus epidermidis 835, class symbols, read-out: MIC SE 835.
[31] abbreviates: Streptococcus pyogenes 712, class symbols, read-out: MIC S PYO 712.

Molecules are shown by their SMILES. ≈ marks a conversion by molar mass, not a printed value. Where two headings read alike, the source gives them in different places.

For the molecule `CCNCCOc1ccc(CCNC(=O)Oc2cc(O)c3c(c2)[C@@H](C(=O)NC2C4CC5CC(C4)CC2C5)NC(=O)[C@H]2NC(=O)[C@H](NC(=O)[C@@H]4NC(=O)[C@H](CC(N)=O)NC(=O)[C@H](NC(=O)[C@@H](CC(C)C)NC)[C@H](O)c5ccc(c(Cl)c5)Oc5cc4cc(c5O[C@@H]4O[C@H](CO)[C@@H](O)[C@H](O)[C@H]4O[C@H]4C[C@](C)(N)[C@H](O)[C@H](C)O4)Oc4ccc(cc4Cl)[C@H]2O)c2ccc(O)c-3c2)cc1` (some centres unmarked) [Compound 337], the MIC in assay [1] (setting [11]) lay within 0.01 to 0.5 µg/mL (≈ 0.0055 to 0.275 µM); in [2] (setting [12]), 0.01 to 0.5 µg/mL (≈ 0.0055 to 0.275 µM); in assay [3] (setting [13]), 1 to 2 µg/mL (≈ 0.55 to 1.1 µM); in [4] (setting [14]), 8 to 16 µg/mL (≈ 4.4 to 8.81 µM); with Enterococcus faecium 800 (setting [15]), 0.01 to 0.5 µg/mL (≈ 0.0055 to 0.275 µM); in assay [5] (setting [16]), 4 to 8 µg/mL (≈ 2.2 to 4.4 µM). Besides, the minimal inhibitory concentration (MIC) in [6] (Staphylococcus aureus, MRSA) was 0.01 to 0.5 µg/mL (≈ 0.0055 to 0.275 µM); in assay [7] (setting [17]), 0.01 to 0.5 µg/mL (≈ 0.0055 to 0.275 µM); in [8] (setting [18]) it was 0.01 to 0.5 µg/mL (≈ 0.0055 to 0.275 µM); in assay [9] (setting [19]), 0.01 to 0.5 µg/mL (≈ 0.0055 to 0.275 µM); in assay [10] (setting [20]), 0.01 to 0.5 µg/mL (≈ 0.0055 to 0.275 µM).

Take `CCCCCCc1ccc(NC(=O)Oc2cc(O)c3c(c2)[C@@H](C(=O)NC2C4CC5CC(C4)CC2C5)NC(=O)[C@H]2NC(=O)[C@H](NC(=O)[C@@H]4NC(=O)[C@H](CC(N)=O)NC(=O)[C@H](NC(=O)[C@@H](CC(C)C)NC)[C@H](O)c5ccc(c(Cl)c5)Oc5cc4cc(c5O[C@@H]4O[C@H](CO)[C@@H](O)[C@H](O)[C@H]4O[C@H]4C[C@](C)(N)[C@H](O)[C@H](C)O4)Oc4ccc(cc4Cl)[C@H]2O)c2ccc(O)c-3c2)cc1` (some centres unmarked) [Compound 332]: the minimum inhibitory concentration (MIC) was 0.5 to 1 µg/mL (≈ 0.28 to 0.56 µM) in [1] (setting [11]); 1 to 2 µg/mL (≈ 0.56 to 1.12 µM) in assay [2] (setting [12]); 4 to 8 µg/mL (≈ 2.24 to 4.48 µM) in assay [3] (setting [13]); more than 16 µg/mL in assay [4] (setting [14]); 0.5 to 1 µg/mL (≈ 0.28 to 0.56 µM) in the assay on Enterococcus faecium 800 (setting [15]); 8 to 16 µg/mL (≈ 4.48 to 8.96 µM) in assay [5] (setting [16]). In addition, the MIC is 1 to 2 µg/mL (≈ 0.56 to 1.12 µM) in [6] (Staphylococcus aureus, MRSA); 0.01 to 0.5 µg/mL (≈ 0.0056 to 0.28 µM) in assay [7] (setting [17]); 1 to 2 µg/mL (≈ 0.56 to 1.12 µM) in assay [8] (setting [18]); 1 to 2 µg/mL (≈ 0.56 to 1.12 µM) in assay [9] (setting [19]); 0.01 to 0.5 µg/mL (≈ 0.0056 to 0.28 µM) in assay [10] (setting [20]).

Turning to `CCCCCCc1ccc(NC(=O)NCCCCCCNCc2c(O)cc3c(c2O)-c2cc(ccc2O)[C@H]2NC(=O)[C@@H]4NC(=O)[C@H](CC(N)=O)NC(=O)[C@H](NC(=O)[C@@H](CC(C)C)NC)[C@H](O)c5ccc(c(Cl)c5)Oc5cc4cc(c5O[C@@H]4O[C@H](CO)[C@@H](O)[C@H](O)[C@H]4O[C@H]4C[C@](C)(NC(=O)NC5CC5)[C@H](O)[C@H](C)O4)Oc4ccc(cc4Cl)[C@@H](O)[C@H](NC2=O)C(=O)N[C@@H]3C(=O)O)cc1` (atropisomer, axis not shown) [Compound 368], the MIC in assay [1] (setting [21]) was 0.01 to 0.5 µg/mL (≈ 0.00537 to 0.268 µM); in assay [2] (setting [22]), 0.01 to 0.5 µg/mL (≈ 0.00537 to 0.268 µM); in assay [3] (setting [23]), 0.5 to 1 µg/mL (≈ 0.268 to 0.537 µM); in assay [4] (setting [24]), more than 16 µg/mL; in the assay on Enterococcus faecium 800 (setting [25]), 0.01 to 0.5 µg/mL (≈ 0.00537 to 0.268 µM); in [5] (setting [26]), 2 to 4 µg/mL (≈ 1.07 to 2.15 µM). The MIC in [6] (setting [27]), in [7] (setting [28]), in assay [8] (setting [29]), in [9] (setting [30]) and in [10] (setting [31]) was 0.01 to 0.5 µg/mL (≈ 0.00537 to 0.268 µM) throughout.

In the case of `CCCCCCc1ccc(S(=O)(=O)NCCCCCCNCc2c(O)cc3c(c2O)-c2cc(ccc2O)[C@H]2NC(=O)[C@@H]4NC(=O)[C@H](CC(N)=O)NC(=O)[C@H](NC(=O)[C@@H](CC(C)C)NC)[C@H](O)c5ccc(c(Cl)c5)Oc5cc4cc(c5O[C@@H]4O[C@H](CO)[C@@H](O)[C@H](O)[C@H]4O[C@H]4C[C@](C)(NC(=O)CCCCCN)[C@H](O)[C@H](C)O4)Oc4ccc(cc4Cl)[C@@H](O)[C@H](NC2=O)C(=O)N[C@@H]3C(=O)O)cc1` (atropisomer, axis not shown) [Compound 344], the MIC in assay [1] (setting [21]) is 0.01 to 0.5 µg/mL (≈ 0.00522 to 0.261 µM); in [2] (setting [22]), 0.01 to 0.5 µg/mL (≈ 0.00522 to 0.261 µM); in [3] (setting [23]), 0.01 to 0.5 µg/mL (≈ 0.00522 to 0.261 µM); in [4] (setting [24]) it was 4 to 8 µg/mL (≈ 2.09 to 4.18 µM); in the assay with Enterococcus faecium 800 (setting [25]), 0.01 to 0.5 µg/mL (≈ 0.00522 to 0.261 µM); in assay [5] (setting [26]), 1 to 2 µg/mL (≈ 0.522 to 1.04 µM). Also, the MIC in [6] (setting [27]), in [7] (setting [28]), in assay [8] (setting [29]), in [9] (setting [30]) and in [10] (setting [31]) was 0.01 to 0.5 µg/mL (≈ 0.00522 to 0.261 µM) each time.

The values above are taken from patent US20110015119A1, “NOVEL SEMI-SYNTHETIC GLYCOPEPTIDES AS ANTIBACTERIAL AGENTS” (LEAD THERAPEUTICS, INC., priority 2009, published 2011).
